Test results from patent US6447988B2, “In vitro assay method for the study of brain aging” (The Regents of the University of California, priority 1997, dated 2002).

Tests used:
hippocampal slices [1] = conditions: cited from earlier work
hippocampal slices [2] = experiment: Western blot analyses of cultured hippocampal slices exposed to ZPAD; type: cell-based, Sprague-Dawley rats; conditions: for replication of ZPAD-induced alterations by more selective inhibitors of cathepsin L: cultured brain slices
Experimental: (§1) Hippocampal slices were prepared from 10-13 day-old Sprague-Dawley rats and maintained in culture using the method of Stoppini et al. (1991, supra). Briefly, the hippocampi were dissected in ice-cold artificial cerebrospinal fluid (124 mM NaCl, 10 mM glucose, 3 mM KCl, 1.25 mM KH2PO4, 4 mM MgSO4, 2 mM CaCl2, 26 mM NaHCO3, 2 mM ascorbate, 0.1 mM ascorbate, pH=7.3), and 400 μm thick slices were produced on a McIlwain tissue chopper. One ml of culture media (50% Basal Medium Eagle, 25% Earle's Balance Salt Solution, 25% horse serum), supplemented with 136 mM NaCl, 2 mM CaCl2, 2.5 mM MgSO4, 5 mM NaHCO3 3 mM glutamine, 40 mM glucose, 0.5 mM ascorbic acid, 20 mM HEPES (pH=7.3), 1 mg/L insulin, 5 U/ml penicillin and 5 mg/L streptomycin, was added to each well of a six well culture plate, and inserts containing a polystyrene membrane (pore size: […]) were placed in each well to support the hippocampal sections. Slices were incubated in a humidified, 37° C. atmosphere containing 5% CO2 and maintained in culture for at least nine days before experiments were initiated. Media was replenished on the first day after explantation, and every 2-3 days during the initial culture period. A subset of the hippocampal slices in the six-well culture dishes was exposed to media (as described above, with heat-treated horse serum) containing 30-50 μM ZPAD (BACHEM Bioscience, Inc., Torrance, Calif.). Tissue was harvested after three to six days of continuous ZPAD exposure.

hippocampal slices [3] = experiment: Electron microscopy of cultured hippocampal slices treated with ZPAD; type: cell-based, Sprague-Dawley rats
Experimental: as §1
Furthermore, lysosomes in CA1 and CA3 pyramidal cells were not restricted to the soma but instead were located throughout dendritic processes. Clusters of lysosomes were commonly found within bulging segments of proximal dendrites that were notable for an absence of nicrotubules and neurofilaments. […] These appendages are similar in form and content to structures previously referred to as “meganeurites.” While pyknotic nuclei were sometimes encountered, most of the cells in slices exposed to ZPAD for six days appeared relatively normal. […]

cathepsin D mRNA = experiment: In situ hybridization for cathepsin D mRNA in cultured hippocampal slices; type: cell-based, Sprague-Dawley rats; conditions: four days of exposure to 45 μM ZPAD
Experimental: as §1, with “Tissue was harvested after three to six days of continuous ZPAD exposure.” left out

[4] = chloroquine treatment of long-term hippocampal slices
[5] = 45 μM ZPAD for six days, electron microscope

## CCN(CC)CCCC(C)Nc1ccnc2cc(Cl)ccc12 (centres unmarked) [chloroquine]
Hippocampal slices [1]; [4]
  carboxy-terminal fragments of the amyloid precursor protein (APP): appearance
  synaptophysin: loss

## CC(C)C[C@H](NC(=O)[C@@H](NC(=O)N[C@@H](Cc1ccccc1)C(=O)O)[C@@H]1CCN=C(N)N1)C(=O)N[C@H](C=O)Cc1ccccc1 [chymostatin]
Hippocampal slices [2]
  replication of ZPAD-induced alterations by more selective inhibitors of cathepsin L: replicated several of the ZPAD-induced alterations

## C=C(C)[C@H]1CN[C@H](C(=O)O)[C@H]1CC(=O)O [kainic acid]
Hippocampal slices [1]; pre-treatment with kainic acid before chloroquine
  rate of build-up of β-amyloid-containing fragments and loss of synaptophysin: more rapid

## N-CBZ-L-phenylalanyl-L-alanine-diazomethylketone [ZPAD]
Hippocampal slices [3]; [5]
  meganeurite formation on CA1 neurons: a small percentage of CA1 neurons
  number of lysosomes in the perikarya of neurons and glia: dramatic increase
Hippocampal slices [3]; ZPAD for six days, then seven additional days in culture without ZPAD
  meganeurite-containing CA1 pyramidal cells after washout: more commonly found
Cathepsin D mRNA; CA3 neurons
  increase in the level of cathepsin D mRNA, CA3 neurons: 56%
Cathepsin D mRNA; p<0.01
  increase in the level of cathepsin D mRNA, glial cells of subfield CA1 stratum radiatum: 71%
Hippocampal slices [2]; 45 μM ZPAD for six days, Western blot
  levels of 25-30 kDa fragments of amyloid precursor protein: increased levels
Hippocampal slices [2]; Western blots of subcellular fractions of ZPAD-exposed slices
  levels of active cathepsin D protein in lysosomal and non-lysosomal (cytosolic) compartments: markedly elevated levels
Hippocampal slices [2]; slices exposed to 30-50 μM ZPAD for three to six days, Western blot, p<0.001, n=8
  increase in the protein level of cathepsin D: 3 fold
Hippocampal slices [2]; slices exposed to 30-50 μM ZPAD for three to six days, Western blot, tubulin, spectrin, microtubule-associated protein-2, tau
  degradation of cytoskeletal proteins: proteolytic degradation of four cytoskeletal proteins

## N-CBZ-L-phenylalanyl-L-phenylalanine-diazomethylketone
Hippocampal slices [2]
  replication of ZPAD-induced alterations by more selective inhibitors of cathepsin L: replicated several of the ZPAD-induced alterations
